Test results as given in patent US20230085307A1, “PYRIDAZINONE COMPOUND AND HERBICIDE” (NISSAN CHEMICAL CORPORATION, priority 2019, published 2023).

Experiments:
redroot pigweed = assay: Test Example 5: herbicidal effect by foliage application, plastic box (Table 20, symbol N); format: in vivo, redroot pigweed (Amaranthus retroflexus); settings: foliage application, AAH 320 g/ha, evaluated three weeks after application
Summary of the method: (§1)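 Plants were sown into sterilized diluvial soil under about 1.5 cm cover and kept in a greenhouse at 25° C. to 30° C. Fourteen days on, foliage received an even spray of the diluted emulsion. Herbicidal or crop effect was judged three weeks afterwards.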

late watergrass [1] = assay: Test Example 2: herbicidal activity, application during weed generation under submerged conditions (Table 17, symbol A); format: in vivo, late watergrass (Echinochloa oryzicola); settings: AAH 320 g/ha; application during weed generation, submerged conditions
Summary of the method: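 Herbicide emulsion, diluted with water to the chosen amount, is applied onto 4 cm floodwater over alluvial soil where the weeds were co-sown and raised at 25–30° C. Application timing: 1–2 leaves. Assessment: three weeks afterwards.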

Italian ryegrass [2] = assay: Test Example 5: herbicidal effect by foliage application, plastic box (Table 20, symbol K); format: in vivo, Italian ryegrass (Lolium multiflorum); settings: foliage application, AAH 320 g/ha, evaluated three weeks after application
Summary of the method: as §1

late watergrass [3] = assay: Test Example 1: herbicidal activity, application before weed generation under submerged conditions (Table 16, symbol A); format: in vivo, late watergrass (Echinochloa oryzicola); settings: 320 g/ha applied herbicide
Summary of the method: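 Alluvial soil was flooded to 4 cm depth, weed seeds were sown mixed and 2.5-leaf rice seedlings were transplanted. On sowing day, the compound's emulsion, diluted in water to a set dose, was applied to the water surface. Plants grew at 25–30 °C and were scored 0–5 after three weeks.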

blackgrass [4] = assay: Test Example 4: herbicidal effect by soil treatment (Table 19, symbol J); format: in vivo, blackgrass (Alopecurus myosuroides); settings: amount of applied herbicide 320 g/ha
Summary of the method: (§2)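 Pre-emergence style soil spray: seeds under ~1.5 cm sterilized diluvial soil received a uniform coat of emulsion diluted to the predetermined herbicide amount. Greenhouse 25–30° C; readout at week three on previously defined criteria.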

velvetleaf [5] = assay: Test Example 4: herbicidal effect by soil treatment (Table 19, symbol M); format: in vivo, velvetleaf (Abutilon theophrasti); settings: amount of applied herbicide 320 g/ha
Summary of the method: as §2

barnyard grass = assay: Test Example 3: herbicidal effect by foliage application, Wagner pot (Table 18, symbol H); format: in vivo, barnyard grass (Echinochloa crus-galli); settings: amount of applied herbicide 320 g/ha
Summary of the method: (§3)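 Plants were sown in alluvial soil held under 0.1–0.5 cm standing water and grown 14 days in a greenhouse at 25–30 °C. An emulsifiable formulation, water-diluted to the set dose, was then sprayed onto the foliage, and effects were scored three weeks later using previously defined criteria.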

blackgrass [6] = assay: Test Example 5: herbicidal effect by foliage application, plastic box (Table 20, symbol J); format: in vivo, blackgrass (Alopecurus myosuroides); settings: foliage application, AAH 320 g/ha, evaluated three weeks after application
Summary of the method: as §1

southern crabgrass = assay: Test Example 4: herbicidal effect by soil treatment (Table 19, symbol F); format: in vivo, southern crabgrass (Digitaria ciliaris); settings: amount of applied herbicide 320 g/ha
Summary of the method: as §2

Chinese sprangletop = assay: Test Example 3: herbicidal effect by foliage application, Wagner pot (Table 18, symbol D); format: in vivo, chinese sprangletop (Leptochloa chinensis); settings: amount of applied herbicide 320 g/ha
Summary of the method: as §3

velvetleaf [7] = assay: Test Example 5: herbicidal effect by foliage application, plastic box (Table 20, symbol M); format: in vivo, velvetleaf (Abutilon theophrasti); settings: foliage application, AAH 320 g/ha, evaluated three weeks after application
Summary of the method: as §1

lambsquarters [8] = assay: Test Example 5: herbicidal effect by foliage application, plastic box (Table 20, symbol O); format: in vivo, lambsquarters (Chenopodium album); settings: foliage application, AAH 320 g/ha, evaluated three weeks after application
Summary of the method: as §1

lambsquarters [9] = assay: Test Example 4: herbicidal effect by soil treatment (Table 19, symbol O); format: in vivo, lambsquarters (Chenopodium album); settings: amount of applied herbicide 320 g/ha
Summary of the method: as §2

windgrass = assay: Test Example 4: herbicidal effect by soil treatment (Table 19, symbol L); format: in vivo, windgrass (Apera spica-venti); settings: amount of applied herbicide 320 g/ha
Summary of the method: as §2

Italian ryegrass [10] = assay: Test Example 4: herbicidal effect by soil treatment (Table 19, symbol K); format: in vivo, Italian ryegrass (Lolium multiflorum); settings: amount of applied herbicide 320 g/ha
Summary of the method: as §2

persian speedwell = assay: Test Example 4: herbicidal effect by soil treatment (Table 19, symbol R); format: in vivo, Persian speedwell (Veronica persica); settings: amount of applied herbicide 320 g/ha
Summary of the method: as §2

| Compound | N: redroot pigweed, herbicidal effect (criteria 0-5) (redroot pigweed) | herbicidal effect rating, A: late watergrass (late watergrass [1]) | K: Italian ryegrass, herbicidal effect (criteria 0-5) (Italian ryegrass [2]) | Herbicidal effect on A: late watergrass (grade 0-5) (late watergrass [3]) | herbicidal effect on J: blackgrass (blackgrass [4]) | herbicidal effect on M: velvetleaf (velvetleaf [5]) | herbicidal effect on H: barnyard grass (barnyard grass) | J: blackgrass, herbicidal effect (criteria 0-5) (blackgrass [6]) | herbicidal effect on F: southern crabgrass (southern crabgrass) | herbicidal effect on D: Chinese sprangletop (Chinese sprangletop) | M: velvetleaf, herbicidal effect (criteria 0-5) (velvetleaf [7]) | O: lambsquarters, herbicidal effect (criteria 0-5) (lambsquarters [8]) | herbicidal effect on O: lambsquarters (lambsquarters [9]) | herbicidal effect on L: windgrass (windgrass) | herbicidal effect on K: Italian ryegrass (Italian ryegrass [10]) | herbicidal effect on R: persian speedwell (persian speedwell) |
| --- | --- | --- | --- | --- | --- | --- | --- | --- | --- | --- | --- | --- | --- | --- | --- | --- |
| CC(=O)c1ccc(-c2sc3ccc(F)cc3c2-c2c(O)c(C)nn(C)c2=O)cc1 [2-339] | 5 (Herbicidal rate of 90% or more (almost completely withered)) | 3 (Herbicidal rate of 40% or more and less than 70%) | 5 (Herbicidal rate of 90% or more (almost completely withered)) | 4 (Herbicidal rate of 70% or more and less than 90%) | 2 (Herbicidal rate of 20% or more and less than 40%) | 5 (Herbicidal rate of 90% or more (almost completely withered)) | 5 (Herbicidal rate of 90% or more (almost completely withered)) | 1 (Herbicidal rate of 5% or more and less than 20%) | 0 (Herbicidal rate of 5% or less (almost no effect)) | 4 (Herbicidal rate of 70% or more and less than 90%) | 5 (Herbicidal rate of 90% or more (almost completely withered)) | 4 (Herbicidal rate of 70% or more and less than 90%) | 4 (Herbicidal rate of 70% or more and less than 90%) | 2 (Herbicidal rate of 20% or more and less than 40%) | 4 (Herbicidal rate of 70% or more and less than 90%) | 4 (Herbicidal rate of 70% or more and less than 90%) |
| Cc1nn(C)c(=O)c(-c2c(-c3ccc([N+](=O)[O-])cc3)sc3ccc(F)cc23)c1O [2-341] | 5 (Herbicidal rate of 90% or more (almost completely withered)) | 3 (Herbicidal rate of 40% or more and less than 70%) | 5 (Herbicidal rate of 90% or more (almost completely withered)) | 3 (Herbicidal rate of 40% or more and less than 70%) | 0 (Herbicidal rate of 5% or less (almost no effect)) | 3 (Herbicidal rate of 40% or more and less than 70%) | 4 (Herbicidal rate of 70% or more and less than 90%) | 4 (Herbicidal rate of 70% or more and less than 90%) | 5 (Herbicidal rate of 90% or more (almost completely withered)) | 3 (Herbicidal rate of 40% or more and less than 70%) | 5 (Herbicidal rate of 90% or more (almost completely withered)) | 5 (Herbicidal rate of 90% or more (almost completely withered)) | 4 (Herbicidal rate of 70% or more and less than 90%) | 1 (Herbicidal rate of 5% or more and less than 20%) | 5 (Herbicidal rate of 90% or more (almost completely withered)) | 5 (Herbicidal rate of 90% or more (almost completely withered)) |
